Reference: patent US5635510A, “Substituted pyrrolidin-3-yl-alkyl-piperidines” (Merrell Pharmaceuticals Inc., priority 1994, dated 1997)

Columns and labels:
NK1 receptor = target: T1, NK1 receptor (Homo sapiens, UniProt P25103); experiment: Antagonism of NK1 receptor mediated (SP-induced) phosphatidylinositol turnover in UC11 cells; assay type: cell-based
T1 construct: antagonizes both NK1 (on UC11 cells); endogenous in cells; host or cells: UC11 cells
Description: Tachykinin-mediated inositol phosphate accumulation was measured in UC11 or SKLKB82#3 cells in the presence and absence of NK1 or NK2 receptor antagonists, respectively. Tissues were incubated in Krebs-Henseleit buffer at 37° C. with 95% O2 -5% CO2 gassing. Tissues were then incubated with fresh buffer containing 100 μCi of myo-[2-3H(N)] inositol at 37° C. for 60 min with gentle gassing. After washing twice in 5 ml room temperature buffer containing 10 mM LiCl, tissues were incubated for 30 min at room temperature with a buffer change at 15 min. Buffer was removed and Krebs-Henseleit buffer (containing 40 μg/ml bacitracin, 4 μg/ml each of leupeptin and chymostatin, 0.1% bovine serum albumin and 10 mM each of thiorphan and LiCl) added. After 15 min, SP was added to UC11 cells or NKA to SKLKB82#3 cells at various concentrations to start the reaction. After incubation for 60 min at room temperature the reaction was terminated by addition of 930 μl chloroform: methanol (1:2 by volume) to each tube, followed by 310 μl chloroform and 310 μl doubly distilled water. Samples were vortexed, centrifuged, and 0.9 ml of the aqueous (top) phase removed and added to 2 ml ddH2 O. The mixture was vortexed and loaded onto a 50% Bio-Rad AG 1-X8 (formate form, 100-200 mesh) exchange column (Bio-Rad Laboratories, Hercules, Calif.). The columns were washed, in order, with: 1) 10 ml doubly distilled water, 2) 5 ml of 5 mM disodium tetraborate/60 mM sodium formate, and 3) 5 ml of 1M ammonium formate/0.1M formic acid. The third elution was collected and 1 ml counted in 7 ml scintillation fluid. A 50 μl aliquot of the organic (bottom) phase was removed, dried in a scintillation vial and counted in 7 ml scintillation fluid.
The ratio of DPM in the aqueous phase aliquot (total inositol phosphates) to the DPM in the 50 μl organic phase aliquot (total [^3 H]inositol incorporated) was calculated for each sample. Data are expressed as a percent of agonist-induced accumulation of [^3 H]-inositol phosphates over basal levels. The ratios in the presence of test compound and/or standards were compared to the ratios for control samples (i.e. no stimulating agonist). Dose-response graphs were constructed and the abilities of the test compounds to inhibit tachykinin-induced phosphatidyinositol turnover determined with the aid of a computer program. […] Data is expressed as percent stimulation of total inositol phosphate accumulation over basal levels and normalized to the maximum response produced by SP. […] Schild analysis is performed using dose response curves (such as those presented in FIGS. 1a and 1b) to obtain a value indicative of the strength of a competitive antagonist and is expressed as the pA2, which is the negative logarithm of the molar concentration of antagonist which reduces the effect of a dose of agonist to one-half of that expected at the dose of agonist.

NK-3 receptor = target: T2, NK-3 receptor (Cavia porcellus, UniProt P30098); experiment: Antagonism of iodinated eledoisin binding to NK3 receptor, guinea pig cerebral cortex
T2 construct: evaluated in freshly collected guinea pig cerebral cortex; from tissue; host or cells: guinea pig cerebral cortex
T2 sequence (P30098 1-440): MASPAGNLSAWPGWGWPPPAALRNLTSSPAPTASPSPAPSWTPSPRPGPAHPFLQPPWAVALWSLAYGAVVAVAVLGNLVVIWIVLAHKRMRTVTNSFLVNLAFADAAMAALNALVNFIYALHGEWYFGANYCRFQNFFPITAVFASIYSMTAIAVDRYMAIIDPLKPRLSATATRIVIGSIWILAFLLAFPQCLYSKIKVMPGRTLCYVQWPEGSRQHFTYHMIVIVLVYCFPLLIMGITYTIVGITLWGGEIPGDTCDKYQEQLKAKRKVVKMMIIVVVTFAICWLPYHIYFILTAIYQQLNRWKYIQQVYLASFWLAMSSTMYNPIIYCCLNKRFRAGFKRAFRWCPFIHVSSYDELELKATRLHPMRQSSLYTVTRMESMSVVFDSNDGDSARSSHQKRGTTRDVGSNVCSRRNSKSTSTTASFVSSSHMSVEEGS
Description: ANTAGONISM OF IODINATED TACHYKININ BINDING TO NK1 AND NK2
RECEPTORS BY PUTATIVE ANTAGONISTS
The NK1 receptor affinity of proposed tachykinin antagonists was evaluated in guinea pig lungs (Keystone Biologicals, Cleveland, OH), affinity for the NK2 receptor evaluated in HSKR-1 cells (which are mouse 3T3 fibroblasts expressing the human jejunal NK2 receptor) and NK-3 receptor affinity was evaluated in freshly collected guinea pig cerebral cortex. Tissues or cells were homogenized with a Polytron in 15 volumes of 50 mM Tris-HCl buffer (pH 7.4, 4° C.) and centrifuged. The pellet was resuspended in Tris-HCl buffer and was centrifuged; the pellet was washed twice by resuspension. The final pellet was resuspended at a concentration of 40 mg/ml for tissues (guinea pig lung and cerebral cortex) and 20 mg/ml for cells in incubation buffer and remained at room temperature for at least 15 min prior to use. Receptor binding was initiated by addition of 250 ul membrane preparation in duplicate to 0.1 nM of the following radioligands: ^125 I-Bolton Hunter Lys-3 labeled substance P; ^125 iodohistidyl-1-neurokinin A; and ^125 I-Bolton Hunter labeled Lys-4 eledoisin in a final volume of 500 ul of buffer containing 50 mM Tris-HCl (pH 7.4 at room temperature), 0.1% bovine serum albumin, 2 mM MnCl2, 40 ug/ml bacitracin, 4 μg/ml leupeptin and chymostatin, 1 μM thiorphan and various doses of the putative tachykinin antagonists. Incubations were performed at room temperature for 90 min (NK1 receptor assays) or 2 hr (NK2 and NK3 receptor assays); binding was terminated by addition of 50 mM Tris-HCl buffer (pH 7.4, 4° C.) and filtration under vacuum through GF/B filters presoaked with 0.1% polyethyleneimine (NK1 receptor assays) or 0.5% bovine serum albumin (NK2 and NK3 receptor assays). Filter bound radioactivity was quantitated in a gamma counter. […] Specific binding was calculated by subtracting nonspecific binding from total binding. Competition of iodinated SP, NKA, or eledoisin binding by test compounds or standards was expressed as a percentage of this maximum competition. […]

T1 sequence (P25103 whole entry): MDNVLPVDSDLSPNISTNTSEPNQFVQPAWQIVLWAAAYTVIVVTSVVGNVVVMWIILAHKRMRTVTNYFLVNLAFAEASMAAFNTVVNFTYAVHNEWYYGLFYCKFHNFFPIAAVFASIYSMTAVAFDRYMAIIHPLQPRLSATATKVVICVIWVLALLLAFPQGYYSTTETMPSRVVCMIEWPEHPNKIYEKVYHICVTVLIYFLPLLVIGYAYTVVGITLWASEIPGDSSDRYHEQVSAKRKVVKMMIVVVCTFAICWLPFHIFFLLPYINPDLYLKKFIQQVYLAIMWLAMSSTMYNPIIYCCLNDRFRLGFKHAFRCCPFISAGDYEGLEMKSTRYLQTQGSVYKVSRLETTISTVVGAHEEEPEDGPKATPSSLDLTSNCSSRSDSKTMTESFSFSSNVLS

| Compound | relative antagonism of NK1 and NK2 receptors (in words) (NK1 receptor; PI turnover, UC11 (NK1) versus SKLKB82#3 (NK2) cells) | Kb (NK1 receptor; UC11 cells, SP, Schild analysis, mean (95% confidence limits), 2-3 experiments, read-out: NK-1 receptor pA2 (converted)) [nM] | IC50 (NK-3 receptor; NK-3 IC50, guinea pig cerebral cortex, 125I-eledoisin, mean of several experiments) [nM] | antagonism of SP-induced PI turnover (in words) (NK1 receptor; UC11 cells, FIG. 1a) | agonist activity (stimulation of PI turnover by compound alone) (NK1 receptor; UC11 or SKLKB82#3 cells) | affinity for NK3 receptors (in words) (NK-3 receptor; guinea pig cerebral cortex) |
| --- | --- | --- | --- | --- | --- | --- |
| COc1cc(C(=O)N2CCC(CCN3CCC(C(N)=O)(c4ccccc4)CC3)(c3ccc(Cl)c(Cl)c3)C2)cc(OC)c1OC (single isomer, unassigned; (+)) [Example 20, (+)-1-[2-[3-(3,4-dichloro-phenyl)-1-(3,4,5-trimethoxy-benzoyl)-pyrrolidin-3-yl]-ethyl]-4-phenylpiperidine-4-carboxylic acid amide] | antagonized both NK1 and NK2 receptors by nearly equivalent amounts | 6.46 | 21 |  |  |  |
| COc1cc(C(=O)N2CCC(CCN3CCC(C(N)=O)(c4ccccc4)CC3)(c3ccc(Cl)c(Cl)c3)C2)cc(OC)c1OC (stereo not drawn) [Example 3, 1-[2-[3-(3,4-dichloro-phenyl)-1-(3,4,5-trimethoxy-benzoyl)-pyrrolidin-3-yl]-ethyl]-4-phenyl-piperidine-4-carboxylic acid amide] |  |  |  | antagonizes both NK1 (on UC11 cells) and NK2 (on SKLKB82#3) receptors in a dose-dependent manner | no agonist activity | high affinity |
